# In patent EP3509566B1, “COMPOUNDS FOR REDUCING CELLULAR MELANIN CONTENT” (Unilever N.V., priority 2016, dated 2018):
# Like-named read-outs stand apart in the source and are kept apart here.
# Experiments:
# [1] = system: Neonatal foreskin primary human epidermal melanocytes; assay: Melanin content assay (OD405nm of cell lysate); format: cell-based
# Experimental: A set of indolyl compounds were purchased from SIGMA-ALDRICH as stocks of 10 mM in 100% DMSO. They were initially examined at 25 uM concentration in cell culture (Table 1) for their ability to reduce melanin content and then, at different doses (Table 2). Neonatal foreskin primary human epidermal melanocytes was sourced from Cascade Biologicals (labelled passage P0). Melanocytes were maintained in Medium 254CF (Cascade Cat. # M-254CF-500) supplemented with human melanocyte growth supplement (Cascade; Cat. # S-002-5), hereafter referred to as MGM. Cells were maintained at 37 °C in a humidified incubator with 5 % CO2 atmosphere. 50,000 cells were seeded in 24 well plate in MGM. After 24 hours, the cultures were treated with various concentrations of test materials and were left undisturbed for a further period of 72 hours. Comparative vehicle controls of 0.25 % (v/v) DMSO were also set up in parallel, simultaneously. At the end of the incubation period, the cell viability was determined using the calcein method. […] Cells were lysed by resuspension and incubation (60 °C/one hour.). Then this lysate was transferred to a fresh 384-well plate and measured OD405nm in a TECAN M1000 plate reader (estimate of relative melanin content). […] Percentage Melanin content was calculated as the ratio between OD405nm value of any sample to that of DMSO reference sample.
# [2] = Cell viability assay (calcein method); format: cell-based, human; conditions: human, epidermal melanocytes
# Experimental: (§1) A set of indolyl compounds were purchased from SIGMA-ALDRICH as stocks of 10 mM in 100% DMSO. They were initially examined at 25 uM concentration in cell culture (Table 1) for their ability to reduce melanin content and then, at different doses (Table 2). Neonatal foreskin primary human epidermal melanocytes was sourced from Cascade Biologicals (labelled passage P0). Melanocytes were maintained in Medium 254CF (Cascade Cat. # M-254CF-500) supplemented with human melanocyte growth supplement (Cascade; Cat. # S-002-5), hereafter referred to as MGM. Cells were maintained at 37 °C in a humidified incubator with 5 % CO2 atmosphere. 50,000 cells were seeded in 24 well plate in MGM. After 24 hours, the cultures were treated with various concentrations of test materials and were left undisturbed for a further period of 72 hours. Comparative vehicle controls of 0.25 % (v/v) DMSO were also set up in parallel, simultaneously. At the end of the incubation period, the cell viability was determined using the calcein method. Briefly, cell culture spent media was removed and cells washed once with 0.4 ml of 1x PBS-Ca-Mg solution. […] Plates were covered with aluminium foil and incubated for 30 minutes at 37 °C in the regular CO2 incubator. […] Percentage Melanin content was calculated as the ratio between OD405nm value of any sample to that of DMSO reference sample.
# [3] = system: Neonatal foreskin primary human epidermal melanocytes; assay: Cell viability assay (calcein method); format: cell-based; conditions: 72 hours
# Experimental: as §1
# [4] = 3.125 µM, 72 hours, Table 2, fresh batch
# [5] = 6.25 µM, 72 hours, Table 2, fresh batch
# [6] = 12.5 µM, 72 hours, Table 2, fresh batch
# [7] = 25 µM, 72 hours, Table 2, fresh batch
# [8] = 50 µM, 72 hours, Table 2, fresh batch
# [9] = Homo sapiens, Melanocyte, 72 h, 25 µM, 72 hours, Table 1, normalized melanin content, read-out: 100* (%Melanin/% Viability)
# [10] = Homo sapiens, Melanocyte, 72 h, 25 µM, 72 hours, Table 1, read-out: % reduction in Melanin
# [11] = Homo sapiens, Melanocyte, 72 h, 25 µM, 72 hours, Table 1, relative to DMSO, read-out: % Melanin
# [12] = Homo sapiens, Melanocyte, 72 h, 25 µM, 72 hours, Table 2, fresh batch, read-out: 100* (% Melanin/%Viability)
# [13] = Homo sapiens, Melanocyte, 72 h, 25 µM, 72 hours, Table 2, fresh batch, read-out: % Melanin
# [14] = Homo sapiens, Melanocyte, 72 h, 25 µM, 72 hours, Table 2, fresh batch, read-out: % reduction in Melanin
# [15] = 25 µM, 72 hours, Table 1, 100 = 0.25% DMSO, read-out: % Viability
compound,measurement,setting,value
"CC(Cc1c[nH]c2ccccc12)NC(=O)OCCCl (stereo not shown) [Compound #1, 2-chloroethyl [2-(1H-indol-3-yl)-1-methylethyl] carbamate]",% reduction in Melanin,[1]; [4],Nil
same,OD405nm (Melanin),[1]; [4],0.168
same,OD405nm (Melanin),[1]; [5],0.146
same,OD405nm (Melanin),[1]; [6],0.134
same,OD405nm (Melanin),"[1]; 25 µM, 72 hours, Table 1",0.093
same,OD405nm (Melanin),[1]; [7],0.122
same,melanin reduction (in words),"[1]; 25 µM, Table 1",significant melanin reduction
same,OD405nm (Melanin),[1]; [8],0.103
same,activity at 3.125 µM,"[1]; Homo sapiens, Melanocyte, 72 h, 3.125 µM, 72 hours, Table 2, fresh batch, read-out: 100* (% Melanin/%Viability)",102%
same,activity at 3.125 µM,"[1]; Homo sapiens, Melanocyte, 72 h, 3.125 µM, 72 hours, Table 2, fresh batch, read-out: % Melanin",96%
same,activity at 6.25 µM,"[1]; Homo sapiens, Melanocyte, 72 h, 6.25 µM, 72 hours, Table 2, fresh batch, read-out: 100* (% Melanin/%Viability)",85.9%
same,activity at 6.25 µM,"[1]; Homo sapiens, Melanocyte, 72 h, 6.25 µM, 72 hours, Table 2, fresh batch, read-out: % Melanin",83%
same,inhibition at 6.25 µM,"[1]; Homo sapiens, Melanocyte, 72 h, 6.25 µM, 72 hours, Table 2, fresh batch, read-out: % reduction in Melanin",14.1%
same,activity at 12.5 µM,"[1]; Homo sapiens, Melanocyte, 72 h, 12.5 µM, 72 hours, Table 2, fresh batch, read-out: 100* (% Melanin/%Viability)",82.4%
same,activity at 12.5 µM,"[1]; Homo sapiens, Melanocyte, 72 h, 12.5 µM, 72 hours, Table 2, fresh batch, read-out: % Melanin",77%
same,inhibition at 12.5 µM,"[1]; Homo sapiens, Melanocyte, 72 h, 12.5 µM, 72 hours, Table 2, fresh batch, read-out: % reduction in Melanin",17.6%
same,activity at 25 µM,[1]; [9],87%
same,inhibition at 25 µM,[1]; [10],13%
same,activity at 25 µM,[1]; [11],83%
same,activity at 25 µM,[1]; [12],74.7%
same,activity at 25 µM,[1]; [13],70%
same,inhibition at 25 µM,[1]; [14],25.3%
same,activity at 50 µM,"[1]; Homo sapiens, Melanocyte, 72 h, 50 µM, 72 hours, Table 2, fresh batch, read-out: 100* (% Melanin/%Viability)",66.8%
same,activity at 50 µM,"[1]; Homo sapiens, Melanocyte, 72 h, 50 µM, 72 hours, Table 2, fresh batch, read-out: % Melanin",59%
same,inhibition at 50 µM,"[1]; Homo sapiens, Melanocyte, 72 h, 50 µM, 72 hours, Table 2, fresh batch, read-out: % reduction in Melanin",33.2%
same,efficacy compared to Kojic acid (in words),"[1]; various doses, Table 2",more efficacious at concentrations much lower than Kojic acid
same,"viability at 72 h, 3.125 µM",[2]; [4],94%
same,"viability at 72 h, 6.25 µM",[2]; [5],96.6%
same,"viability at 72 h, 12.5 µM",[2]; [6],93.4%
same,"viability at 72 h, 25 µM",[2]; [15],95%
same,"viability at 72 h, 25 µM","[2]; 25 µM, 72 hours, Table 2, fresh batch, read-out: % Viability",93.7%
same,"viability at 72 h, 50 µM",[2]; [8],88.3%
same,Calcein Fluorescence,"[3]; 3.125 µM, Table 2, fresh batch",94 arbitrary units
same,Calcein Fluorescence,"[3]; 6.25 µM, Table 2, fresh batch",96.6 arbitrary units
same,Calcein Fluorescence,"[3]; 12.5 µM, Table 2, fresh batch",93.4 arbitrary units
same,Calcein Fluorescence,"[3]; 25 µM, Table 1",95 arbitrary unit
same,Calcein Fluorescence,"[3]; 25 µM, Table 2, fresh batch of melanocytes",93.7 arbitrary units
same,Calcein Fluorescence,"[3]; 50 µM, Table 2, fresh batch",88.3 arbitrary units
"O=c1cc(CO)occ1O [Kojic acid, reference compound]",OD405nm (Melanin),[1]; [7],0.177
same,OD405nm (Melanin),"[1]; 250 µM, 72 hours, Table 2, fresh batch",0.152
same,OD405nm (Melanin),"[1]; 500 µM, 72 hours, Table 2, fresh batch",0.139
same,activity at 25 µM,[1]; [12],99.3%
same,activity at 25 µM,[1]; [13],101%
same,inhibition at 25 µM,[1]; [14],0.7%
same,activity at 250 µM,"[1]; Homo sapiens, Melanocyte, 72 h, 250 µM, 72 hours, Table 2, fresh batch, read-out: 100* (% Melanin/%Viability)",90.4%
same,activity at 250 µM,"[1]; Homo sapiens, Melanocyte, 72 h, 250 µM, 72 hours, Table 2, fresh batch, read-out: % Melanin",87%
same,inhibition at 250 µM,"[1]; Homo sapiens, Melanocyte, 72 h, 250 µM, 72 hours, Table 2, fresh batch, read-out: % reduction in Melanin",9.6%
same,activity at 500 µM,"[1]; Homo sapiens, Melanocyte, 72 h, 500 µM, 72 hours, Table 2, fresh batch, read-out: 100* (% Melanin/%Viability)",83.3%
same,activity at 500 µM,"[1]; Homo sapiens, Melanocyte, 72 h, 500 µM, 72 hours, Table 2, fresh batch, read-out: % Melanin",80%
same,inhibition at 500 µM,"[1]; Homo sapiens, Melanocyte, 72 h, 500 µM, 72 hours, Table 2, fresh batch, read-out: % reduction in Melanin",16.7%
same,"viability at 72 h, 25 µM",[2]; % Viability,102%
same,"viability at 72 h, 250 µM",[2]; % Viability,96%
same,"viability at 72 h, 500 µM",[2]; % Viability,96%
"CC(=O)NC(C)Cc1c[nH]c2ccccc12 (stereo not shown) [Compound #2, N-[2-(1H-indol-3-yl)-1-methylethyl]acetamide, reference compound]",OD405nm (Melanin),"[1]; 25 µM, 72 hours, Table 1",0.108
same,melanin reduction (in words),"[1]; 25 µM, Table 1",comparatively insignificant
same,activity at 25 µM,[1]; [9],98%
same,inhibition at 25 µM,[1]; [10],2%
same,activity at 25 µM,[1]; [11],96%
same,"viability at 72 h, 25 µM",[2]; [15],98%
same,Calcein Fluorescence,"[3]; 25 µM, Table 1",98 arbitrary unit
"CC(=O)O.CC(Cc1c[nH]c2ccccc12)NC(=O)CN (stereo not shown) [Compound #3, 2-amino-N-[2-(1H-indol-3-yl)-1-methylethyl]acetamide acetate]",OD405nm (Melanin),"[1]; 25 µM, 72 hours, Table 1",0.111
same,melanin reduction (in words),"[1]; 25 µM, Table 1",significant melanin reduction
same,activity at 25 µM,[1]; [9],89%
same,inhibition at 25 µM,[1]; [10],11%
same,activity at 25 µM,[1]; [11],99%
same,"viability at 72 h, 25 µM",[2]; [15],111%
same,Calcein Fluorescence,"[3]; 25 µM, Table 1",111 arbitrary unit
